Our source for the EC50 values is patent US9868772B2 (INDIANA UNIVERSITY RESEARCH AND TECHNOLOGY CORPORATION, priority 2012, dated 2018).

SMILES strings stand for the structures. Numbered stars: 1 amine (or outer) side, 2 acyl side, 3 side chain; on linkers, the order of the positions; unused ones are H or OH. Square brackets hold non-standard residues; d marks the D form. Side chains are listed from the residue outwards. Peptide text beside a SMILES is read from it. * marks the point of attachment. γGlu = O=C(O)[C@H](CCC(=O)[*:2])N[*:1]; Desaminohistidyl = O=C(CCc1c[nH]cn1)*; Palmitoyl = CCCCCCCCCCCCCCCC(=O)*; 2Thi = N[C@@H](Cc1cccs1)C(=O)O; Aib = CC(C)(N)C(=O)O

Common to all, as to assay: cAMP induction, firefly luciferase reporter assay in HEK293 cells co-transfected with receptor
What all share (type): cell-based
On the technique in general: In a reporter assay the amount or activity of a reporter protein is the signal.

For test [1], the target named is T1, GIP receptor (Homo sapiens, UniProt P48546).
T1 construct: expressed in transfected cells; host or cells: HEK293
T1 sequence (P48546 22-466): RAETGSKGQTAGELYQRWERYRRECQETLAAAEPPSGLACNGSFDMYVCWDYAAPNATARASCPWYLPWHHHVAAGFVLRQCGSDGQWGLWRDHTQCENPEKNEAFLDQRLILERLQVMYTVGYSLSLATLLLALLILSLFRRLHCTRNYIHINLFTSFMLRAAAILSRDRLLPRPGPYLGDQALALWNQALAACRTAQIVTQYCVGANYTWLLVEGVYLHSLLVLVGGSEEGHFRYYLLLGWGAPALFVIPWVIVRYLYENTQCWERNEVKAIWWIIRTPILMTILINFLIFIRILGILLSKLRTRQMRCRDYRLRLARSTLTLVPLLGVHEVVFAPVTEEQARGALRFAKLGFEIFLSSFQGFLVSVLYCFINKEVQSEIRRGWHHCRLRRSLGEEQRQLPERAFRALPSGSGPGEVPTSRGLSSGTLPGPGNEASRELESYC
The procedure:
(§1) The ability of glucagon analogs to induce cAMP was measured in a firefly luciferase-based reporter assay. […] At the end of the incubation 100 microliters of LucLite luminescence substrate reagent (Perkin-Elmer, Wellesley, Mass.) were added to each well. […] Effective 50% concentrations were calculated by using Origin software (OriginLab, Northampton, Mass.

Test [2] addresses T2, GLP-1 receptor (Homo sapiens, UniProt P43220).
T2 construct: expressed in transfected cells; host or cells: HEK293
The procedure: as §1

The target of test [3] is T3, glucagon receptor (Homo sapiens, UniProt P47871).
T3 construct: expressed in transfected cells; host or cells: HEK293
T3 sequence (P47871 26-477): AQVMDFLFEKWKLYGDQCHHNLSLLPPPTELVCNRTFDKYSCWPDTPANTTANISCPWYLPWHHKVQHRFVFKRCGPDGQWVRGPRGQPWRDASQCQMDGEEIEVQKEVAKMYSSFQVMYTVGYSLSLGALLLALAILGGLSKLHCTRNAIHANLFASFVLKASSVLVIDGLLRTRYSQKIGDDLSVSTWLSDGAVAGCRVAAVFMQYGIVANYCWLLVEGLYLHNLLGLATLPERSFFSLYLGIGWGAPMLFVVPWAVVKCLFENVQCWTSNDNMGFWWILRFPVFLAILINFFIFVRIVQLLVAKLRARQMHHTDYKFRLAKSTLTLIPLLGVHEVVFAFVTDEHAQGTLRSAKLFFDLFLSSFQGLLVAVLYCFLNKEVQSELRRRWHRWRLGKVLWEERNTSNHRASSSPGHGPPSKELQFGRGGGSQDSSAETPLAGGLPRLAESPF
The procedure: as §1

Where [4] appears, read: Table 1, analogs of SEQ ID NO: 37.
Where [5] appears, read: Table 2, analogs of SEQ ID NO: 10.

T2 sequence (P43220 24-463): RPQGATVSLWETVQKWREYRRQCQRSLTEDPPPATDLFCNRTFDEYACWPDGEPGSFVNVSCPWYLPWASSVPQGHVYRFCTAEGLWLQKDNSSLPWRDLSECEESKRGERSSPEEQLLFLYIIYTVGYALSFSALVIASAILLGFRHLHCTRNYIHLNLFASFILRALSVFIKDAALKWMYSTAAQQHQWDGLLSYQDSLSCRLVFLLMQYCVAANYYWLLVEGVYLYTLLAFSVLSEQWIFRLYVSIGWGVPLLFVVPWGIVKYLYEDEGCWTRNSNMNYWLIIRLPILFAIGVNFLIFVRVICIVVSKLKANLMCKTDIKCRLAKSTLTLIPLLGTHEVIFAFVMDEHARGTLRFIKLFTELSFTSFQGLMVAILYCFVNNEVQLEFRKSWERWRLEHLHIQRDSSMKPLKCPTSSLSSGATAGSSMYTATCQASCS

In general, EC50 refers to the concentration needed to bring the measured effect to its halfway point. Higher therefore signals weaker potency. `CCCCCCCCCCCCCCCC(=O)N[C@@H](CCC(=O)NCCCC[C@H](NC(=O)[C@H](CC(=O)O)NC(=O)[C@H](CO)NC(=O)[C@@H](NC(=O)[C@H](Cc1ccccc1)NC(=O)[C@@H](NC(=O)CNC(=O)[C@H](CCC(N)=O)NC(=O)CNC(=O)[C@@H](N)Cc1cccs1)[C@@H](C)O)[C@@H](C)O)C(=O)N[C@@H](CO)C(=O)N[C@@H](CCCCN)C(=O)N[C@@H](Cc1ccc(O)cc1)C(=O)N[C@@H](CC(C)C)C(=O)N[C@@H](CC(=O)O)C(=O)N[C@@H](CCC(=O)O)C(=O)N[C@@H](CCCNC(=N)N)C(=O)N[C@@H](C)C(=O)N[C@@H](C)C(=O)N[C@@H](CCC(N)=O)C(=O)N[C@@H](CC(=O)O)C(=O)N[C@@H](Cc1ccccc1)C(=O)N[C@H](C(=O)N[C@@H](CCC(N)=O)C(=O)N[C@@H](Cc1c[nH]c2ccccc12)C(=O)N[C@@H](CC(C)C)C(=O)N[C@@H](CC(C)C)C(=O)N[C@@H](CCC(=O)O)C(=O)NCC(=O)NCC(=O)N1CCC[C@H]1C(=O)N[C@@H](CO)C(=O)N[C@@H](CO)C(=O)NCC(=O)N[C@@H](C)C(=O)N1CCC[C@H]1C(=O)N1CCC[C@H]1C(=O)N1CCC[C@H]1C(=O)N[C@@H](CO)C(N)=O)C(C)C)C(=O)O` [compound 29] (H-[2Thi]GQGTFTSDK([γGlu-Palmitoyl])SKYLDERAAQDFVQWLLEGGPSSGAPPPS-NH2; N-terminus assumed): the EC50 in test [1] (setting [4]) turned out to be 0.095 nM; in test [2] (setting [4]), 0.007 nM; in test [3] (setting [4]) it was 0.038 nM.
The matching figures for `CCCCCCCCCCCCCCCC(=O)N[C@@H](CCC(=O)NCCCC[C@H](NC(=O)[C@H](CC(=O)O)NC(=O)[C@H](CO)NC(=O)[C@@H](NC(=O)[C@H](Cc1ccccc1)NC(=O)[C@@H](NC(=O)CNC(=O)[C@H](CCC(N)=O)NC(=O)CNC(=O)CCc1c[nH]cn1)[C@@H](C)O)[C@@H](C)O)C(=O)N[C@@H](CO)C(=O)N[C@@H](CCCCN)C(=O)N[C@@H](Cc1ccc(O)cc1)C(=O)N[C@@H](CC(C)C)C(=O)N[C@@H](CC(=O)O)C(=O)N[C@@H](CCC(=O)O)C(=O)N[C@@H](CCCNC(=N)N)C(=O)N[C@@H](C)C(=O)N[C@@H](C)C(=O)N[C@@H](CCC(N)=O)C(=O)N[C@@H](CC(=O)O)C(=O)N[C@@H](Cc1ccccc1)C(=O)N[C@H](C(=O)N[C@@H](CCC(N)=O)C(=O)N[C@@H](Cc1c[nH]c2ccccc12)C(=O)N[C@@H](CC(C)C)C(=O)N[C@@H](CC(C)C)C(=O)N[C@@H](CCC(=O)O)C(=O)NCC(=O)NCC(=O)N1CCC[C@H]1C(=O)N[C@@H](CO)C(=O)N[C@@H](CO)C(=O)NCC(=O)N[C@@H](C)C(=O)N1CCC[C@H]1C(=O)N1CCC[C@H]1C(=O)N1CCC[C@H]1C(=O)N[C@@H](CO)C(N)=O)C(C)C)C(=O)O` [compound 31] (Desaminohistidyl-GQGTFTSDK([γGlu-Palmitoyl])SKYLDERAAQDFVQWLLEGGPSSGAPPPS-NH2): 0.226 nM, 0.003 nM and 0.022 nM.
The matching figures for `CCCCCCCCCCCCCCCC(=O)N[C@@H](CCC(=O)NCCCC[C@H](NC(=O)[C@H](CC(=O)O)NC(=O)[C@H](CO)NC(=O)[C@@H](NC(=O)[C@H](Cc1ccccc1)NC(=O)[C@@H](NC(=O)CNC(=O)[C@H](CCC(N)=O)NC(=O)[C@@H]1CCCN1C(=O)[C@@H](N)Cc1cccs1)[C@@H](C)O)[C@@H](C)O)C(=O)N[C@@H](CO)C(=O)N[C@@H](CCCCN)C(=O)N[C@@H](Cc1ccc(O)cc1)C(=O)N[C@@H](CC(C)C)C(=O)N[C@@H](CC(=O)O)C(=O)N[C@@H](CCC(=O)O)C(=O)N[C@@H](CCCNC(=N)N)C(=O)N[C@@H](C)C(=O)N[C@@H](C)C(=O)N[C@@H](CCC(N)=O)C(=O)N[C@@H](CC(=O)O)C(=O)N[C@@H](Cc1ccccc1)C(=O)N[C@H](C(=O)N[C@@H](CCC(N)=O)C(=O)N[C@@H](Cc1c[nH]c2ccccc12)C(=O)N[C@@H](CC(C)C)C(=O)N[C@@H](CC(C)C)C(=O)N[C@@H](CCC(=O)O)C(=O)NCC(=O)NCC(=O)N1CCC[C@H]1C(=O)N[C@@H](CO)C(=O)N[C@@H](CO)C(=O)NCC(=O)N[C@@H](C)C(=O)N1CCC[C@H]1C(=O)N1CCC[C@H]1C(=O)N1CCC[C@H]1C(=O)N[C@@H](CO)C(N)=O)C(C)C)C(=O)O` [compound 33] (H-[2Thi]PQGTFTSDK([γGlu-Palmitoyl])SKYLDERAAQDFVQWLLEGGPSSGAPPPS-NH2): 0.43 nM, 0.005 nM and 0.121 nM.
The matching figures for `CCCCCCCCCCCCCCCC(=O)N[C@@H](CCC(=O)NCCCC[C@H](NC(=O)[C@H](CC(=O)O)NC(=O)[C@H](CO)NC(=O)[C@@H](NC(=O)[C@H](Cc1ccccc1)NC(=O)[C@@H](NC(=O)CNC(=O)[C@H](CCC(N)=O)NC(=O)CNC(=O)[C@H](CCC(N)=O)NC(C)=O)[C@@H](C)O)[C@@H](C)O)C(=O)N[C@@H](CO)C(=O)N[C@@H](CCCCN)C(=O)N[C@@H](Cc1ccc(O)cc1)C(=O)N[C@@H](CC(C)C)C(=O)N[C@@H](CC(=O)O)C(=O)N[C@@H](CCC(=O)O)C(=O)N[C@@H](CCCNC(=N)N)C(=O)N[C@@H](C)C(=O)N[C@@H](C)C(=O)N[C@@H](CCC(N)=O)C(=O)N[C@@H](CC(=O)O)C(=O)N[C@@H](Cc1ccccc1)C(=O)N[C@H](C(=O)N[C@@H](CCC(N)=O)C(=O)N[C@@H](Cc1c[nH]c2ccccc12)C(=O)N[C@@H](CC(C)C)C(=O)N[C@@H](CC(C)C)C(=O)N[C@@H](CCC(=O)O)C(=O)NCC(=O)NCC(=O)N1CCC[C@H]1C(=O)N[C@@H](CO)C(=O)N[C@@H](CO)C(=O)NCC(=O)N[C@@H](C)C(=O)N1CCC[C@H]1C(=O)N1CCC[C@H]1C(=O)N1CCC[C@H]1C(=O)N[C@@H](CO)C(N)=O)C(C)C)C(=O)O` [compound 34] (Ac-QGQGTFTSDK([γGlu-Palmitoyl])SKYLDERAAQDFVQWLLEGGPSSGAPPPS-NH2): 0.436 nM, 0.611 nM and 0.163 nM.
In the case of `CCCCCCCCCCCCCCCC(=O)N[C@@H](CCC(=O)NCCCC[C@H](NC(=O)[C@H](CC(=O)O)NC(=O)[C@H](CO)NC(=O)[C@@H](NC(=O)[C@H](Cc1ccccc1)NC(=O)[C@@H](NC(=O)CNC(=O)[C@H](CCC(N)=O)NC(=O)C(C)(C)NC(=O)[C@@H](N)Cc1c[nH]cn1)[C@@H](C)O)[C@@H](C)O)C(=O)N[C@@H](CO)C(=O)N[C@@H](CCCCN)C(=O)N[C@@H](Cc1ccc(O)cc1)C(=O)N[C@@H](CC(C)C)C(=O)N[C@@H](CC(=O)O)C(=O)N[C@@H](CCC(=O)O)C(=O)N[C@@H](CCCNC(=N)N)C(=O)N[C@@H](C)C(=O)N[C@@H](C)C(=O)N[C@@H](CCC(N)=O)C(=O)N[C@@H](CC(=O)O)C(=O)N[C@@H](Cc1ccccc1)C(=O)N[C@H](C(=O)N[C@@H](CCC(N)=O)C(=O)N[C@@H](Cc1c[nH]c2ccccc12)C(=O)N[C@@H](CC(C)C)C(=O)N[C@@H](CC(C)C)C(=O)N[C@@H](CCC(=O)O)C(=O)NCC(=O)NCC(=O)N1CCC[C@H]1C(=O)N[C@@H](CO)C(=O)N[C@@H](CO)C(=O)NCC(=O)N[C@@H](C)C(=O)N1CCC[C@H]1C(=O)N1CCC[C@H]1C(=O)N1CCC[C@H]1C(=O)N[C@@H](CO)C(N)=O)C(C)C)C(=O)O` [compound 37] (H-H[Aib]QGTFTSDK([γGlu-Palmitoyl])SKYLDERAAQDFVQWLLEGGPSSGAPPPS-NH2; N-terminus assumed), the EC50 is 0.003 nM in test [1] (setting [4]), 0.006 nM in test [2] (setting [4]) and 0.009 nM in test [3] (setting [4]).
For `CCCCCCCCCCCCCCCC(=O)N[C@@H](CCC(=O)NCCCC[C@H](NC(=O)[C@H](CC(=O)O)NC(=O)[C@H](CO)NC(=O)[C@@H](NC(=O)[C@H](Cc1ccccc1)NC(=O)[C@@H](NC(=O)CNC(=O)[C@H](CCC(=O)O)NC(=O)[C@H](C)NC(=O)[C@@H](Cc1ccc(O)cc1)NC(C)=O)[C@@H](C)O)[C@@H](C)O)C(=O)N[C@@H](CO)C(=O)N[C@@H](CCCCN)C(=O)N[C@@H](Cc1ccc(O)cc1)C(=O)N[C@@H](CC(C)C)C(=O)N[C@@H](CC(=O)O)C(=O)N[C@@H](CCC(=O)O)C(=O)N[C@@H](CCCNC(=N)N)C(=O)N[C@@H](C)C(=O)N[C@@H](C)C(=O)N[C@@H](CCC(N)=O)C(=O)N[C@@H](CC(=O)O)C(=O)N[C@@H](Cc1ccccc1)C(=O)N[C@H](C(=O)N[C@@H](CCC(N)=O)C(=O)N[C@@H](Cc1c[nH]c2ccccc12)C(=O)N[C@@H](CC(C)C)C(=O)N[C@@H](CC(C)C)C(=O)N[C@@H](CCC(=O)O)C(=O)NCC(=O)NCC(=O)N1CCC[C@H]1C(=O)N[C@@H](CO)C(=O)N[C@@H](CO)C(=O)NCC(=O)N[C@@H](C)C(=O)N1CCC[C@H]1C(=O)N1CCC[C@H]1C(=O)N1CCC[C@H]1C(=O)N[C@@H](CO)C(N)=O)C(C)C)C(=O)O` [compound 141], the results for the EC50 in test [1] (setting [5]), in test [2] (setting [5]) and in test [3] (setting [5]) were 0.002 nM, 0.006 nM and 0.419 nM, respectively.
